In patent US20250059171A1 (Hoffmann-La Roche Inc., priority 2021, published 2025):

How the values were obtained:
SARS-CoV-2 3CLpro = SARS-CoV-2 3CLpro (Severe acute respiratory syndrome coronavirus 2, UniProt P0DTD1); test: biochemical
HCoV-229E 3CLpro = HCoV-229E 3CLpro (Human coronavirus 229E, UniProt P0C6X1); test: HCoV-229E 3CLpro inhibition assay (FRET); assay type: biochemical
MERS-CoV 3CLpro = MERS-CoV 3CLpro (Middle East respiratory syndrome-related coronavirus, UniProt K9N7C7); test: biochemical
Sequence of MERS-CoV 3CLpro (K9N7C7 3248-3553): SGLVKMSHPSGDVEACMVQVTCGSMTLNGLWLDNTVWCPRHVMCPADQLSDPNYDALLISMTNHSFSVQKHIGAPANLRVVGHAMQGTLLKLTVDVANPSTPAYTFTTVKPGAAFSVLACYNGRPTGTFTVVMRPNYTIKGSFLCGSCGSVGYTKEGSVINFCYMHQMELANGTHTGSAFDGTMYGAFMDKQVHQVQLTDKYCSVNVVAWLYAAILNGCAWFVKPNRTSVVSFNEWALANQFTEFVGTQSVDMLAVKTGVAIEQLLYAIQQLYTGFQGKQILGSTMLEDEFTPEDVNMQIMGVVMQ

SARS-CoV 3CLpro = SARS-CoV 3CLpro (Severe acute respiratory syndrome coronavirus, UniProt P0C6X7); test: biochemical

Sequence of HCoV-229E 3CLpro (P0C6X1 2966-3267): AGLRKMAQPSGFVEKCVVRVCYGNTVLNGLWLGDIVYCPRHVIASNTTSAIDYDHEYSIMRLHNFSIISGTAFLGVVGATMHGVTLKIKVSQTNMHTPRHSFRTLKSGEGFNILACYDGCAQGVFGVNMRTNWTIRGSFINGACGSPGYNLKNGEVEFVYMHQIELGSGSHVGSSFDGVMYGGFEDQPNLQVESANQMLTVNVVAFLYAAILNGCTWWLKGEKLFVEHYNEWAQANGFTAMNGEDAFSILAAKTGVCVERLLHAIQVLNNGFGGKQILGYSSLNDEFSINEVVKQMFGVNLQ

Row | Structure (SMILES) | IC50 (SARS-CoV-2 3CLpro) | IC50 (HCoV-229E 3CLpro) | IC50 (MERS-CoV 3CLpro) | IC50 (SARS-CoV 3CLpro)
1 | CCC(C)(C)[C@H](NC(=O)C(F)F)C(=O)N1C[C@@H]2CCC[C@@H]2[C@H]1C(=O)NN(C[C@@H]1CCNC1=O)C(=O)[C@H](F)Cl [Example 151, N-[(1S)-1-[(3S,3aS,6aR)-3-[[[(2R)-2-chloro-2-fluoro-acetyl]-[[(3S)-2-oxopyrrolidin-3-yl]methyl]amino]carbamoyl]-3,3a,4,5,6,6a-hexahydro-1H-cyclopenta[c]pyrrole-2-carbonyl]-2,2-dimethyl-butyl]-2,2-difluoro-acetamide] | 13 nM | 31 nM | 67 nM | 14 nM
2 | CCC(C)(C)[C@H](NC(=O)[C@@H]1CC1(F)F)C(=O)N1C[C@@H]2CCC[C@@H]2[C@H]1C(=O)NN(C[C@@H]1CCNC1=O)C(=O)[C@@H](F)Cl [Example 152, (1S)—N-[(1S)-1-[(3S,3aS,6aR)-3-[[[(2S)-2-chloro-2-fluoro-acetyl]-[[(3S)-2-oxopyrrolidin-3-yl]methyl]amino]carbamoyl]-3,3a,4,5,6,6a-hexahydro-1H-cyclopenta[c]pyrrole-2-carbonyl]-2,2-dimethyl-butyl]-2,2-difluoro-cyclopropanecarboxamide] | 15 nM | 28 nM | 99 nM | 20 nM
3 | CCC(C)(C)[C@H](NC(=O)C(F)F)C(=O)N1C[C@@H]2CCC[C@@H]2[C@H]1C(=O)NN(C[C@@H]1CCNC1=O)C(=O)[C@@H](F)Cl [Example 153, N-[(1S)-1-[(3S,3aS,6aR)-3-[[[(2S)-2-chloro-2-fluoro-acetyl]-[[(3S)-2-oxopyrrolidin-3-yl]methyl]amino]carbamoyl]-3,3a,4,5,6,6a-hexahydro-1H-cyclopenta[c]pyrrole-2-carbonyl]-2,2-dimethyl-butyl]-2,2-difluoro-acetamide] | 12 nM | 43 nM | 250 nM | 15 nM
4 | CCC(C)(C)[C@H](NC(=O)C1(F)CC1)C(=O)N1CC(C)(C)C[C@H]1C(=O)NN(C[C@@H]1CCNC1=O)C(=O)[C@H](F)Cl [Example 154, N-[(1S)-1-[(2S)-2-[[[(2R)-2-chloro-2-fluoro-acetyl]-[[(3S)-2-oxopyrrolidin-3-yl]methyl]amino]carbamoyl]-4,4-dimethyl-pyrrolidine-1-carbonyl]-2,2-dimethyl-butyl]-1-fluoro-cyclopropanecarboxamide] | 17 nM | 52 nM | 305 nM | 21 nM
5 | CC(C)(C)[C@H](NC(=O)C(F)(F)F)C(=O)N1CCC(C)(C)[C@H]1C(=O)NN(C[C@@H]1CCNC1=O)C(=O)[C@H](F)Cl [Example 155a, N-[(1S)-1-[(2S)-2-[[[(2R)-2-chloro-2-fluoro-acetyl]-[[(3S)-2-oxopyrrolidin-3-yl]methyl]amino]carbamoyl]-3,3-dimethyl-pyrrolidine-1-carbonyl]-2,2-dimethyl-propyl]-2,2,2-trifluoro-acetamide] | 24 nM | 739 nM | 1330 nM | 28 nM
6 | CC(C)(C)[C@H](NC(=O)C(F)(F)F)C(=O)N1CCC(C)(C)[C@@H]1C(=O)NN(C[C@@H]1CCNC1=O)C(=O)[C@H](F)Cl [Example 155b, N-[(1S)-1-[(2R)-2-[[[(2R)-2-chloro-2-fluoro-acetyl]-[[(3S)-2-oxopyrrolidin-3-yl]methyl]amino]carbamoyl]-3,3-dimethyl-pyrrolidine-1-carbonyl]-2,2-dimethyl-propyl]-2,2,2-trifluoro-acetamide] | 1570 nM | > 10000 nM | > 10000 nM | 2440 nM
7 | CC1(C)[C@@H]2[C@@H](C(=O)NN(C[C@@H]3CCNC3=O)C(=O)[C@H](F)Cl)N(C(=O)[C@@H](NC(=O)C3(F)CC3)C3CCC3)C[C@@H]21 [Example 156, N-[(1S)-2-[(1R,2S,5S)-2-[[[(2R)-2-chloro-2-fluoro-acetyl]-[[(3S)-2-oxopyrrolidin-3-yl]methyl]amino]carbamoyl]-6,6-dimethyl-3-azabicyclo[3.1.0]hexan-3-yl]-1-cyclobutyl-2-oxo-ethyl]-1-fluoro-cyclopropanecarboxamide] | 14 nM | 32 nM | 106 nM | 28 nM
